Results on 3 compounds are retold here after patent US4151300A, “Acetohydroxamic acids” (Laboratoire L. Lafon, priority 1976, dated 1979).

In brackets after ≈: the same amount, converted by molar mass. Entries after “also recorded” stand apart in the source; their conditions may differ.

Data set [1] relates to mice. Kind of data set: toxicity (isolated mice, intraperitoneal). The data set is classed as in vivo. On the procedure: (§1) The following text summarises a part of the results of the tests which were carried out with the products according to the invention, these products (unless otherwise stated) being administered intraperitoneally, in suspension in a gum solution (gum arabic), in a volume of 20 ml/kg in the case of mice and of 5 ml/kg in the case of rats.

For data set [2], the system named is mice. Nature of the data set: motility reduced by habituation to a cage (residual motility). The format is in vivo. The settings on record: i.p. The procedure, abridged:
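Mice habituated 18 hours in actimeters received compound intraperitoneally as a gum arabic suspension (20 ml/kg) and were returned to their cages. Motility was recorded for 30 minutes starting half an hour after dosing, with 6 animals per dose and 12 controls.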

Data set [3] concerns mice. Kind of data set: electrical shock (convulsing effects). The format is in vivo, mice (EVIC CEBA strain). The settings on record: i.p. As to the method: as §1
The test is carried out on batches of 10 sensitive mice (EVIC CEBA strain), 30 minutes after the administration of CRL 40,373.
Batches of 10 mice are subjected to the test thirty minutes after having received CRL 40,385.

Data set [4] has as its system rats. Nature of the data set: interaction with amphetamine (stereotypies in rats). As to conditions: rats, i.p. The data set is classed as in vivo. The procedure, abridged:
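Test products given intraperitoneally as a gum arabic suspension (5 ml/kg in rats). Thirty minutes later, amphetamine 2 mg/kg is injected intraperitoneally; 6 animals per dose.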

Data set [5] relates to rats. Kind of data set: behaviour in rats. The data set is classed as in vivo. As to the method:
as §1

The subject of data set [6] is mice. Nature of the data set: interaction with oxotremorine (temperature, trembling, peripheral cholinergic symptoms). The data set is classed as in vivo. As to conditions: mice, i.p.
For data set [7], the system named is mice. Kind of data set: four-plate test. The format is in vivo, mice (EVIC CEBA strain). As to conditions: i.p.
The test system of data set [8] is mice. Nature of the data set: inter-group aggressiveness (number of fights). The data set is classed as in vivo. The procedure, abridged: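 Mice were housed either three weeks (CRL 40,373) or 18 days (CRL 40,385, groups of 3) on each side of an opaque cage partition. Fights were counted over 15 min.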
In data set [9] the test system is mice. Kind of data set: motility reduced by hypoxia treatment (motor recovery). The data set is classed as in vivo. The settings on record: mice, i.p.
The test system of data set [10] is rats. Nature of the data set: interaction with apomorphine (stereotype behaviour in rats). The data set is classed as in vivo. As to conditions: rats, i.p. The procedure, abridged: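 Rats in groups of six received the test compound intraperitoneally as a gum arabic suspension at 5 ml/kg. Thirty minutes later they were given apomorphine 0.5 mg/kg subcutaneously, and stereotyped behaviour was scored.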

The test system of data set [11] is mice. Kind of data set: spontaneous motility (actimeter). The format is in vivo. As to conditions: mice. The procedure, abridged:
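Compounds given i.p. as a gum arabic suspension at 20 ml/kg. Thirty minutes after dosing, mice (6 per dose, 12 controls) went into an actimeter and motility was recorded for half an hour.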

Data set [12] relates to mice. Kind of data set: traction (motor incoordination). The format is in vivo, mice (EVIC CEBA strain).
A further data set concerns central nervous system. Kind of data set: psychopharmacological study / behaviour. As to conditions: for sedation / sedative effect: high dose(s). The data set is classed as in vivo, mice.
For data set [13], the system named is mice. Nature of the data set: interaction with apomorphine in mice. The data set is classed as in vivo.
Data set [14] has as its system mice. Nature of the data set: interaction with reserpine (hypothermia, ptosis). As to conditions: i.p. The data set is classed as in vivo.
Data set [15] is described as follows: solubility in distilled water. The format is physicochemical. As to conditions: read-out: solubility limit.
The subject of the next data set is man. Kind of data set: clinical use in man. The format is in vivo. The settings on record: pill 20 mg, 3 to 4 pills per day.

As to `CC(C(=O)NO)[S+]([O-])Cc1ccc(Cl)cc1` (stereo not shown) [CRL 40,466, 2-(p-Chlorobenzylsulphinyl)-propionohydroxamic acid], the mortality result in the data set on mice [1] (mice, i.p., 256, 512 and 1,024 mg/kg) is recorded as “does not cause any mortality whatsoever”. The “motility reduced by habituation to the cage” value with mice [2] was “moderate increase in the motility reduced by habituation”. The “convulsing effects of the electric shock” value with mice [3] (mice) was “antagonism to convulsions caused by electric shock”. Further, in the data set with rats [4], the amphetamine-induced stereotypies entry was “does not markedly alter the stereotypies induced in rats by apomorphine and amphetamine”. Moreover, the excitation entry is reported as “excitation, with hyper-reactivity” in the data set on rats [5] and “excitation, with hyper-reactivity” in the data set with central nervous system (mice, low dose). Further, in the data set with mice [6], the oxotremorine-induced trembling result is given as “reduces the trembling movements due to oxotremorine”. For the same compound, the “temperature (oxotremorine-induced hypothermia)” value is given as “does not oppose hypothermia induced by oxotremorine” in the data set on mice [6] and “aggravates the hypothermia” in the data set on mice [6] (high doses). Also, the “number of incorrect moves (four-plate test)” value in the data set with mice [7] (mice) is on record as “moderate (but significant) increase in the number of incorrect moves”. The aggressiveness result in the data set on mice [8] (low dose) was “increase in aggressiveness”; in the data set on mice [8] (mice, i.p., large/high dose), “reduction of aggressiveness”. In the data set on mice [9], the “motor recovery after hypoxia/anoxia by pressure reduction” value is given as “moderate increase in the motility reduced by habituation or by the effects of hypoxia”. For the same compound, in the data set on rats [10], the apomorphine-induced stereotypies entry was “does not markedly alter the stereotypies induced in rats by apomorphine”. The spontaneous motility entry is listed as “reduction in spontaneous motility” with mice [11] (high dose); “appears to exhibit a stimulant effect on the motility” with mice [11] (i.p., 8 mg/kg); “depresses spontaneous motility in mice” with mice [11] (i.p., 512 mg/kg). In addition, in the data set on mice [12] (high dose), the motor incapacity result was “motor incapacity”. For the same compound, the reactivity entry with central nervous system (mice, high dose) is “hypo-reactivity”. Moreover, the “body temperature effect (product alone)” value in the data set with central nervous system (mouse, in vivo) is on record as “hypothermia”. In addition, the “psychopharmacological profile / conclusion” value in the data set with central nervous system (mouse, in vivo) was “effects of the sedative type and effects of the psychostimulant type; also recorded: sedation in mice”. The “ptosis (product alone)” value with central nervous system (mouse, in vivo) is reported as “ptosis”.
For the compound `O=C(CNc1ccc(Cl)c(Cl)c1)NO` [CRL 40,500, (3,4-Dichloroanilino)-acetohydroxamic acid], the mortality entry in the data set with mice [1] (i.p., 256 mg/kg) is given as “the mice survive”. Also, in the data set with mice [1] (i.p., 512 mg/kg), the “average time to death” value is 18 h. Also, in the data set with mice [1] (mouse, in vivo, ip), the relative toxicity result was “more toxic than the products studied above”. Further, the symptoms / behaviour entry in the data set with mice [1] (mouse, in vivo, ip, 256 mg/kg) is recorded as “the symptoms are identical”. In addition, the “motility reduced by habituation to the cage” value with mice [2] (128 mg/kg) was “moderate resumption of the motor activity of mice habituated to their cage”. The amphetamine-induced stereotypies result in the data set on rats [4] was “does not alter the stereotypies induced by apomorphine (rats and mice) and by amphetamine (rats)”. The “temperature (oxotremorine-induced hypothermia)” value in the data set with mice [6] was “aggravation of the hypothermia due to reserpine and to oxotremorine”. Further, in the data set on mice [6] (128 and 32 mg/kg), the “peripheral effects of oxotremorine” value is reported as “increases the peripheral effects of oxotremorine”. Also, in the data set with mice [8] (low dose), the aggressiveness entry is “reduction of aggressiveness which is substantial at low doses”. Besides, the inter-group aggressiveness result in the data set on mice [8] (mice, i.p., all the doses studied) was “reduces the inter-group aggressiveness of mice”; in the data set with mice [8] (mice, i.p., high doses (64 and 128 mg/kg)) it was “a reduction of the effect is observed”; in the data set with mice [8] (mice, i.p., lowest dose used (8 mg/kg)) it was “present with considerable intensity”. The “motor recovery after hypoxia/anoxia by pressure reduction” value in the data set with mice [9] was “does not cause a marked improvement in the motor recovery of mice”. The apomorphine-induced stereotypies entry in the data set on rats [10] and in the data set with mice [13] was “does not alter the stereotypies induced by apomorphine” each time. Further, in the data set on mice [11] (i.p., 32 and 128 mg/kg), the spontaneous motility result is “moderately reduces the spontaneous motility of mice”. Besides, in the data set on central nervous system, the “sedation / sedative effect” value was “moderate sedation at high doses”. The reserpine-induced hypothermia entry in the data set on mice [14] is given as “aggravation of the hypothermia due to reserpine”.
Turning to `O=C(CC(=O)Nc1c(Cl)cccc1Cl)NO` [CRL 40,510, 2,6-Dichlorophenyl-carbamoyl-acetohydroxamic acid], the “LD-O (maximum non-lethal dose)” value in the data set with mice [1] (mice, i.p.) was “greater than 1,024 mg/kg”. In addition, the solubility in data set [15] is approximately 13 mg/mL (≈ 49.4 mM). Besides, the anti-convulsive effect result in the data set on mice [3] (also gastric administration) is “of the anti-convulsive type”. Besides, in the data set with mice [6], the oxotremorine-induced trembling entry was “moderately antagonistic to the trembling movements caused by oxotremorine”. Also, the “anxiolytic effect (four plate test)” value with mice [7] (also gastric administration) is given as “effects of the anxiolytic type”. Also, the “motor incoordination / incapacity” value with mice [12] (i.p.) is “absence of motor incapacity”. In addition, the “sedation / sedative effect” value in the data set with central nervous system is recorded as “moderate sedative effect”. For the same compound, the “psychopharmacological profile / conclusion” value in the data set with central nervous system (mouse, in vivo) is “comes close to the benzodiazepines in respect of anxiolytic and anti-convulsive activities; also recorded: relative resistance to sedation”. The clinical result in the data set on man was “good results in man as an anxiolytic sedative agent”.
